Source: ChEMBL document CHEMBL5126528, “Recent strategies targeting Embryonic Ectoderm Development (EED) for cancer therapy: Allosteric inhibitors, PPI inhibitors, and PROTACs” (Eur J Med Chem, 2022)
≈ marks a conversion by molar mass, not a printed value. Structures can show the parent of a compound that is named as a salt.

Tests used:
[1] = Inhibition of PRC2 (unknown origin); parameters: species or system Homo sapiens
[2] = molecular target: T1, Polycomb protein EED (Homo sapiens, UniProt O75530); assay: Binding affinity to EED (unknown origin) assessed as dissociation constant by SPR analysis
Target sequence in this assay (O75530 whole entry): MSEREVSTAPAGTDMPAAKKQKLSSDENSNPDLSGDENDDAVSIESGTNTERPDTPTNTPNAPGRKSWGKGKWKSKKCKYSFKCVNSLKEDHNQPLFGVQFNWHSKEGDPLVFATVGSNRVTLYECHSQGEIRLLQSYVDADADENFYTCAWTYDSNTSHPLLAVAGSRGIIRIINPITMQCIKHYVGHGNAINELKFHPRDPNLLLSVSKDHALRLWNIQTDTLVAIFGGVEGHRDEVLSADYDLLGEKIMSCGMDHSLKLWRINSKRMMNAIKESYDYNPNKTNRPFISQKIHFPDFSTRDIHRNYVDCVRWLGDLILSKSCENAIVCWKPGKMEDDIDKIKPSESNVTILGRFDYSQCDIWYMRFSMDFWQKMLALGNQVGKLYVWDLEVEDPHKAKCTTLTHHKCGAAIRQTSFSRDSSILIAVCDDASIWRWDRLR

[3] = molecular target: T1, Polycomb protein EED; assay: Inhibition of human N-terminal His-6 tagged EED expressed in Escherichia coli strain […] by SPR analysis
Target sequence in this assay (O75530 whole entry): as above

[4] = molecular target: T1, Polycomb protein EED; assay: Binding affinity to human N-terminal His-6 tagged EED expressed in Escherichia coli strain […] by SPR analysis
Target sequence in this assay (O75530 whole entry): as above

[5] = tested on: KARPAS-422; assay: Antiproliferative activity against human KARPAS-422 cells assessed as cell growth inhibition measured after 7 to 10 days by celltitre-glo-luminescent assay; format: functional; conditions: time 7-10 day
[6] = Antitumor activity against […] cells xenografted in mouse assessed as tumor growth inhibition at 30 mg/kg relative to control; format: functional; conditions: read-out: TGI
[7] = molecular target: T1, Polycomb protein EED; assay: Inhibition of EED (unknown origin)
Target sequence in this assay (O75530 whole entry): as above

[8] = tested on: KARPAS-422; assay: Antitumor activity against human KARPAS-422 cells assessed as tumor growth inhibition at 100 mg/kg, po, bid for 38 days relative to control; format: functional; conditions: KARPAS-422, 912 h, time 38 day, read-out: TGI
[9] = tested on: Pfeiffer; assay: Antitumor activity against human Pfeiffer cells xenografted in NOD/SCID mouse assessed as tumor growth inhibition at 40 mg/kg, bid, po for 36 days relative to control; format: functional; conditions: 864 h, time 36 day, read-out: TGI
[10] = molecular target: T1, Polycomb protein EED; assay: Inhibition of His-tagged EED (unknown origin) incubated for 30 mins in presence of biotinylated H3K27me3 peptide (19 to 33 aa) by alpha screening competitive binding assay method
Target sequence in this assay (O75530 whole entry): as above

[11] = tested on: Pfeiffer; assay: Antitumor activity against human Pfeiffer cells assessed as tumor growth inhibition at 100 mg/kg, po, bid for 38 days relative to control; format: functional; conditions: 912 h, time 38 day, read-out: TGI
[12] = tested on: Pfeiffer; assay: Antitumor activity against human Pfeiffer cells xenografted in NOD/SCID mouse assessed as tumor growth inhibition at 100 mg/kg, bid, po for 36 days relative to control; format: functional; conditions: 864 h, time 36 day, read-out: TGI
[13] = tested on: KARPAS-422; assay: Antitumor activity against human KARPAS-422 cells xenografted in NOD/SCID mouse assessed as tumor growth inhibition at 40 mg/kg, bid, po for 36 days relative to control; format: functional; conditions: KARPAS-422, 864 h, time 36 day, read-out: TGI
[14] = tested on: KARPAS-422; assay: Antitumor activity against human KARPAS-422 cells xenografted in NOD/SCID mouse assessed as tumor growth inhibition at 100 mg/kg, bid, po for 36 days relative to control; format: functional; conditions: KARPAS-422, 864 h, time 36 day, read-out: TGI
[15] = Inhibition of FITC-labeled EZH2 (39 to 63 residues) (unknown origin)/N-terminal 6x His-tagged human EED protein interaction by incubated for 2 hrs FP-based competitive assay
[16] = Solubility of the compound at pH 7.4; format: physicochemical; conditions: buffer
[17] = Binding affinity to EZH2-EED (unknown origin) protein interaction assessed as inhibition constant by FP binding assay; parameters: species or system Homo sapiens
[18] = Inhibition of EZH2-EED (unknown origin) protein interaction by FP binding assay; parameters: species or system Homo sapiens
[19] = Inhibition of PRC2 HMTase activity in human G-401 cells using nucleosome core particles as substrate in presence of activation peptide H3K27me3 (21 to 44 residues)
[20] = Oral bioavailability in CD-1 mouse; format: ADME, organism-based; conditions: in vivo
[21] = organism: Homo sapiens; assay: Inhibition of GST-tagged EZH2/FLAG-tagged EED (unknown origin) protein protein interaction at 100 uM incubated for 1 hr by AlphaLISA method relative to control
[22] = tested on: LNCaP C4-2B; assay: Antiproliferative activity against human LNCaP C4-2B cells
[23] = tested on: LNCaP C4-2B; assay: Antiproliferative activity against human LNCaP C4-2B cells expressing TaxR
[24] = Antiproliferative activity against human ARCaP cells expressing sh RNA EPLIN
[25] = Antiproliferative activity against human ARCaPE cells expressing sh Ctrl; conditions: ARCaP
[26] = tested on: LNCaP C4-2; assay: Antiproliferative activity against human LNCaP C4-2 cells
[27] = Inhibition of GST-tagged EZH2/FLAG-tagged EED (unknown origin) protein protein interaction incubated for 1 hr by AlphaLISA method; parameters: species or system Homo sapiens
[28] = molecular target: T1, Polycomb protein EED; assay: Inhibition of human EED (76 to 441 residues) expressed in Escherichia coli strain BL21(DE3) by alpha screen assay
Target sequence in this assay (O75530 whole entry): as above

[29] = molecular target: T1, Polycomb protein EED; assay: Binding affinity to EED (unknown origin) assessed as dissociation constant
[30] = tested on: KARPAS-422; assay: Antiproliferative activity against human KARPAS-422 cells treated for 11 days; format: functional, cell-based; conditions: KARPAS-422, 264 h
[31] = tested on: Pfeiffer; assay: Antiproliferative activity against human Pfeiffer cells treated for 14 days; format: functional, cell-based; conditions: 336 h
[32] = molecular target: T1, Polycomb protein EED; assay: Binding affinity to full length EED (unknown origin) assessed as increase in melting temperature at 100 uM incubated for 30 mins by TSA; conditions: tested as the 2H-labelled form
Target sequence in this assay (O75530 2-441 limits assumed): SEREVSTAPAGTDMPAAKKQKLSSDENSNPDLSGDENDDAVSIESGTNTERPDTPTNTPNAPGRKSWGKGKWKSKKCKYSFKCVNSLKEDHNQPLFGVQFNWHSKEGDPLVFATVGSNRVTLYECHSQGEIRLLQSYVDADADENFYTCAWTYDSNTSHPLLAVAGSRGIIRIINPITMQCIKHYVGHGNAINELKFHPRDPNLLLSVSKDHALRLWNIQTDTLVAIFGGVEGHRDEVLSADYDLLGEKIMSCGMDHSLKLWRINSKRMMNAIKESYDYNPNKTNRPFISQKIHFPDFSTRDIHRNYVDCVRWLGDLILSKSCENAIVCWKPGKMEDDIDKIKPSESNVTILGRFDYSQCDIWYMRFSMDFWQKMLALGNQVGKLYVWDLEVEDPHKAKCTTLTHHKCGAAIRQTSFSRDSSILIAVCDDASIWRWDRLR

[33] = molecular target: T1, Polycomb protein EED; assay: Binding affinity to full length EED (unknown origin) assessed as increase in melting temperature at 50 uM incubated for 30 mins by TSA; conditions: tested as the 2H-labelled form
Target sequence in this assay (O75530 2-441 limits assumed): as above

[34] = molecular target: T1, Polycomb protein EED; conditions: dose 500.0 µM
Target sequence in this assay (O75530 2-441 limits assumed): as above
Description: Binding affinity to GST-tagged EED (unknown origin) assessed as thermal stability by measuring melting temperature at 500 uM by TSA method

[35] = tested on: BC; assay: Inhibition of cell growth in human multiple BC cells bearing wildtype EZH2; format: functional, cell-based
[36] = tested on: Lymphoma cell line; assay: Inhibition of cell growth in human Lymphoma cell line bearing EZH2 […] mutant; format: functional, cell-based
[37] = tested on: BC; assay: Inhibition of cell growth in human multiple BC cells bearing EZH2 […] mutant; format: functional, cell-based
[38] = tested on: Lymphoma cell line; assay: Inhibition of cell growth in human Lymphoma cell line bearing wildtype EZH2; format: functional, cell-based

## Cc1ncccc1-c1cnc(NCc2c(F)ccc3c2CCO3)n2cnnc12
[1]
  IC50: 5 nM
[2]
  Kd: 0.4 nM

## Cc1ncsc1-c1ccc(CNC(=O)[C@@H]2C[C@@H](O)CN2C(=O)[C@@H](NC(=O)COc2ccc(OCCNC(=O)CCc3ccc(-c4cnc(NCc5c(F)ccc6c5CCO6)n5cnnc45)c(N)n3)cc2)C(C)(C)C)cc1
[3]
  IC50: 6.76 nM
[4]
  Kd: 0.631 nM
[5]
  GI50: 45 nM

## [2H]C([2H])(Nc1ncc(-c2cccnc2C)c(=O)n1C)c1c(F)ccc2c1CCO2
[6]
  inhibition in vivo at 30 mg/kg: 59.3%
[7]
  IC50: 4.5 nM
[8]
  inhibition in vivo at 100 mg/kg: 85%
[9]
  inhibition in vivo at 40 mg/kg: 83%
[10]
  IC50: 4.5 nM
[11]
  inhibition in vivo at 100 mg/kg: 96%
[12]
  inhibition in vivo at 100 mg/kg: 96%
[13]
  inhibition in vivo at 40 mg/kg: 75%
[14]
  inhibition in vivo at 100 mg/kg: 85%

## COc1ccc(CCN2CCC(Nc3nc4ccccc4n3Cc3ccc(F)cc3)CC2)cc1 [ASTEMIZOLE]
[15]
  IC50: 93800 nM

## Cc1ncccc1-c1cnc(NCc2c(F)cc(Cl)c3c2CCO3)n2cnnc12
[16]
  solubility: 0.2 µM (≈ 0.0822 µg/mL)
[1]
  IC50: 16 nM
[2]
  Kd: 2.4 nM

## CCCCC1C(=O)N(c2ccccc2)N(c2ccc(O)cc2)C1=O (stereo not given) [OXYPHENBUTAZONE ANHYDROUS]
[17]
  Ki: 44500 nM
[18]
  IC50: 229000 nM

## Cc1ncccc1-c1cnc(NCc2c(F)cc(F)c3c2CCO3)n2cnnc12
[16]
  solubility: 4 µM (≈ 1.58 µg/mL)
[1]
  IC50: 11 nM
[2]
  Kd: 1.2 nM

## CS(=O)(=O)c1ccc(-c2cnc(NCc3ccco3)n3cnnc23)cc1
[7]
  IC50: 20 nM
[19]
  IC50: 220 nM
[20]
  F: 10%

## O=C(CC1S/C(=N\c2ccccc2F)N(Cc2ccc3c(c2)OCO3)C1=O)Nc1ccc(C(=O)O)cc1 (stereo not given)
[21]
  inhibition: 49%

## CCOP(=O)(OCC)C(NC(=O)[C@H](Cc1ccc(-c2ccccc2)cc1)NC(=O)/C=C/c1ccc(-c2ccccc2)cc1)P(=O)(OCC)OCC
[22]
  IC50: 91100 nM
[23]
  IC50: 6870 nM
[24]
  IC50: 260 nM
[25]
  IC50: 64900 nM
[26]
  IC50: 56100 nM

## Cc1nc(CCC(=O)NCCCCC(=O)N[C@H](C(=O)N2C[C@H](O)C[C@H]2C(=O)NCc2ccc(-c3scnc3C)cc2)C(C)(C)C)ccc1-c1cnc(NCc2c(F)ccc3c2CCO3)n2cnnc12
[3]
  IC50: 7.76 nM
[4]
  Kd: 0.537 nM
[5]
  GI50: 57 nM

## Cc1cc(-c2cnc(NCC3Cc4cc(F)ccc4O3)n3cc(C#N)nc23)n(C)n1 (stereo not given)
[7]
  IC50: < 100 nM

## C[C@@H](CO)NC(=O)[C@@H]1C=C2c3cccc4[nH]cc(c34)C[C@H]2N(C)C1 [ERGONOVINE MALEATE]
[17]
  Ki: 71100 nM
[18]
  IC50: 366000 nM

## CCOc1ccc(C(=O)CSc2nnc(-c3ccc(O)cc3)c(-c3ccc(O)cc3)n2)cc1NC(=O)CC
[27]
  IC50: 64000 nM

## CN1CCc2cccc3c2[C@H]1Cc1ccc(O)c(O)c1-3 [APOMORPHINE HYDROCHLORIDE]
[17]
  Ki: 2900 nM
[18]
  IC50: 15500 nM

## Cc1nc(NCc2c(F)ccc3c2CCO3)sc1-c1ccnn1C
[28]
  IC50: 2100 nM
[29]
  Kd: 900 nM

## CN1CC=C(c2cnc(NCC3Cc4cc(F)ccc4O3)c3cncnc23)CC1 (stereo not given)
[7]
  IC50: < 100 nM

## Cc1ncccc1-c1cnc(NCC2Cc3cc(F)ccc3O2)c2nncn12 (stereo not given)
[7]
  IC50: < 100 nM

## Cc1ncccc1-c1cnc(NCC2Cc3cc(F)ccc3O2)c2cncnc12 (stereo not given)
[7]
  IC50: < 100 nM

## Cc1ncccc1-c1cnc(NCC2Cc3cc(F)ccc3O2)n2cc(C#N)nc12 (stereo not given)
[7]
  IC50: < 100 nM

## CCS(=O)(=O)N1CC=C(c2cnc(NCC3Cc4cc(F)ccc4O3)n3cnnc23)CC1 (stereo not given)
[7]
  IC50: < 20 nM
[30]
  IC50: 4 nM
[31]
  IC50: 0.8 nM

## COC(=O)C1=C(C)NC(C)=C(C(=O)OC)C1c1ccccc1[N+](=O)[O-] [NIFEDIPINE]
[17]
  Ki: 66600 nM
[18]
  IC50: 343000 nM

## O=C1Nc2ccc(S(=O)(=O)NCCCCCCNS(=O)(=O)c3ccc4c5c(cccc35)C(=O)N4)c3cccc1c23
[21]
  inhibition: 84%

## CC(=O)N1CC=C(c2cnc(NCC3Cc4cc(F)ccc4O3)n3cnnc23)CC1 (stereo not given)
[7]
  IC50: < 20 nM
[30]
  IC50: 7 nM
[31]
  IC50: 0.7 nM

## CN1CC=C(c2cnc(NCC3Cc4cc(F)ccc4O3)n3cnnc23)CC1 (stereo not given)
[7]
  IC50: < 20 nM
[30]
  IC50: 2.8 nM
[31]
  IC50: 2 nM

## Cc1sc(NC(=O)CCCCC(=O)Nc2sc(C)c(C)c2C(N)=O)c(C(N)=O)c1C
[15]
  IC50: 54900 nM

## Cc1ncccc1-c1sc(NCc2c(F)ccc3c2CCO3)nc1C
[28]
  IC50: 5600 nM
[29]
  Kd: 3700 nM

## CCCCc1ccc(Nc2nnc(SCc3occc3C(=O)O)s2)cc1
[27]
  IC50: 32000 nM

## CS(=O)(=O)N1CC=C(c2cnc(NCC3Cc4cc(F)ccc4O3)n3cnnc23)CC1 (stereo not given)
[7]
  IC50: < 20 nM
[30]
  IC50: 13 nM
[31]
  IC50: 1 nM

## Cc1ccc(C(C2=C(O)CC(C)(C)CC2=O)C2C(=O)CC(C)(C)CC2=O)s1 (stereo not given)
[15]
  IC50: 63800 nM

## Cc1ncccc1-c1cnc(NCc2c(F)cc(O)c3c2CCO3)n2cnnc12
[16]
  solubility: 5 µM (≈ 1.96 µg/mL)
[1]
  IC50: 15 nM

## Cc1ncccc1-c1cnc(NCc2c(F)ccc3c2CCO3)n(C)c1=O
[32]
  ΔTm: 10 °C
[33]
  ΔTm: 6 °C

## Cc1ncccc1-c1cnc(NCc2c(F)cc(C#N)c3c2CCO3)n2cnnc12
[16]
  solubility: 3 µM (≈ 1.2 µg/mL)
[1]
  IC50: 102 nM
[2]
  Kd: 15 nM

## Cc1ncccc1-c1cc2c(n3cnnc13)NCc1c(F)ccc3c1[C@H](CO3)CO2 [POCIREDIR]
[29]
  Kd: 163 nM

## CN(C)[C@@H]1CN(C2CCc3cccc(F)c32)C[C@H]1c1ccc(N2CCN(S(C)(=O)=O)CC2)cc1 (stereo not given in full)
[34]
  ΔTm: 18 °C

## C=CC(=O)Nc1cc(Nc2nccc(-c3cn(C)c4ccccc34)n2)c(OC)cc1N(C)CCN(C)C [OSIMERTINIB]
[35]
  IC50: 15 nM
[36]
  IC50: 15 nM
[37]
  IC50: 15 nM
[38]
  IC50: 15 nM

## Cc1ncccc1-c1cnc(NCc2c(F)cc(N)c3c2CCO3)n2cnnc12
[1]
  IC50: 50 nM
[2]
  Kd: 0.5 nM

## CN1CC=C(c2cnc(NCC3Cc4cc(F)ccc4O3)c3nncn23)CC1 (stereo not given)
[7]
  IC50: < 100 nM

## Cc1nc(NCc2cccc3c2OCO3)sc1-c1ccn(C)n1
[28]
  IC50: 2100 nM
[29]
  Kd: 5200 nM
